This note sets out measurements from US9521848B2, “Tetrazolinone compound and use therefor” (Sumitomo Chemical Company, Limited, priority 2013, dated 2016).

Assay [1] concerns wheat rust fungus (Puccinia recondita). The assay can be described thus: Wheat rust control test, foliar spray before inoculation (Test Examples 3, 4, Comparative Test Example). The note with it: 200 ppm foliar spray, wheat (SHIROGANE), inoculated 5 days after spraying. Format: in vivo. The method, then:
The control effect was evaluated by visually observing the area of lesion spots on each of test plants at the time of investigation, and comparing the area of lesion spots on a plant treated with the present compound with that on an untreated plant.
Each of plastic pots was filled with sandy loam and wheat (cultivar: SHIROGANE) was sowed and grown in a greenhouse for 9 days. Then, each water dilution containing a surfactant prepared by adjusting so as to contain a predetermined concentration (500 ppm) of any one compound of the present compounds 1, 18, 19, 20, 21, 27, 30, and 38 was sprayed over stems and leaves of the wheat so that it sufficiently adhered to the surface of the leaves of the wheat. After spraying, the plant was air-dried so as to dry the dilution on the surface of the leaves. After spraying, the plant was air-dried and cultivated at 20° C. for 5 days under illumination, and then inoculated by sprinkling with spores of wheat rust fungus (Puccinia recondita). After the inoculation, the plant was left to stand at 23° C. for one day under dark and high humidity condition, and cultivated under illumination at 20° C. for 8 days, and then the area of lesion spots was investigated.
Each of plastic pots was filled with sandy loam and wheat (cultivar: SHIROGANE) was sowed and grown in a greenhouse for 9 days. […]

In assay [2] the test system is cotton aphid (Aphis gossypii). Description: Cotton aphid control test on cucumber, spray (Test Example 19). In kind it is in vivo. To be noted: 500 ppm, 20 mL sprayed on cucumber with 30 aphids; surviving insects counted after 6 days. The method, then: A water dilution (test chemical solution) containing a surfactant prepared by adjusting so as to contain a predetermined concentration (500 ppm) of the present compound 21 was used as a test chemical solution. Thirty (30) heads of cotton aphid (Aphis gossypii) (including adults and larvae) were released on the leaves of cucumber (cultivar; […]) grown in a polyethylene cup until the first true leaf was developed. Next day, 20 mL of the above test chemical solution was sprayed. After 6 days, the number of the surviving insects was counted and the control value was calculated by the following equation. Control value (%)={1-(Cb×Tai)/(Cai×Tb)}×100 wherein symbols in the equation represent the followings: Cb: Number of insects before spraying chemical solution in untreated area; Cai: Number of surviving insects in untreated area; Tb: Number of insects before spraying chemical solution in treated area; and Tai: Number of surviving insects in treated area.

Consider `Cc1cccc(-n2nnn(C)c2=O)c1COc1cncc(Oc2ccccc2)c1` [1-[2-{5-phenoxypyridin-3-yloxymethyl}-3-methylphenyl]-4-methyl-1,4-dihydrotetrazol-5-one], for which, in assay [1], the “area of lesion spots on the treated plant relative to that on an untreated plant” value is given as ≥ 70%.
As for `Cc1ccc(-c2cnc(OCc3c(C)cccc3-n3nnn(C)c3=O)c(C)c2)cc1` [Present Compound 21], in assay [2], the control value was ≥ 90%.
